According to article PMC5733478, “A Non-imaging High Throughput Approach to Chemical Library Screening at the Unmodified Adenosine-A3 Receptor in Living Cells” (Frontiers in Pharmacology, 2017):
Like-named read-outs stand apart in the source and are kept apart here. Each block holds one molecule with its values, some of them ahead of it.

What was measured:
human A3AR [1] = target: T1, human A3AR (Homo sapiens, UniProt P0DMS8); experiment: LOPAC library primary screen: single concentration (10 μM) inhibition of 25 nM CA200645 binding, PHERAstar FS
T1 construct: expressed in transfected cells
T1 sequence (P0DMS8 1-318): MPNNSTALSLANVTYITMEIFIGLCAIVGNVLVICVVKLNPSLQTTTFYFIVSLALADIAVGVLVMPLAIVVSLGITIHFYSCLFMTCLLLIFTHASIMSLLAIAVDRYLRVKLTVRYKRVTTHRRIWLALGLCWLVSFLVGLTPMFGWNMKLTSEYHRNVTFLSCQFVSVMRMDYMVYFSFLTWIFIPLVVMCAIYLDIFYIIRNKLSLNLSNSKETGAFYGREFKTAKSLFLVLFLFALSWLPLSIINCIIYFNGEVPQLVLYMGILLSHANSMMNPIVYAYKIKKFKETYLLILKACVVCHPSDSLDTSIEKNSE

β2AR = target: T2, β2AR (Homo sapiens, UniProt P07550); experiment: HTS (PHERAstar FS) fluorescent ligand competition binding in live CHO cells, 10 nM BODIPY-TMR-CGP tracer; conditions: for β2AR % Total binding at 10 μM: 10 μM compound, 10 nM BODIPY-TMR-CGP, mean ± SEM, n=3
T2 construct: expressed in transfected cells
Procedure: (§1) CHO cells stably expressing the A3AR, A1AR, β1AR or β2AR were seeded into the central 60 wells (for high content confocal analysis) or every well (high throughput analysis) of a 96-well clear-bottomed, black-walled plate (Greiner BioOne) and grown to confluency. […] Cells were incubated for 1h at 37°C/5% CO2. Buffer was then removed from each well, cells washed once in HBSS and fresh HBSS added at room temperature. Plates were then immediately subjected to high content or HTS analysis as detailed below.
(§2) High throughput analysis was performed using a PHERAstar FS plate reader (BMG Technologies). […] Optimal focal height was determined automatically and total fluorescence intensity was assessed by taking 81 reads per well.
(§3) Competition binding curves were fitted to the following equation using GraphPad Prism 5 (GraphPad Software): […]
(§4) where [L] is the concentration and KD is the equilibrium dissociation constant of the fluorescent ligand.

human A3AR [2] = target: T1, human A3AR; experiment: HTS (PHERAstar FS) fluorescent ligand competition binding in live CHO cells, 25 nM CA200645 tracer; conditions: for displacement of CA200645 binding at the A3AR in full inhibition curves: secondary screen of top ten hits, highest concentration 10 μM, affinity not determinable
Procedure: as §1, §2, §3, §4

human A1AR = target: T3, human A1AR (Homo sapiens, UniProt P30542); experiment: as above; conditions: secondary screen of LOPAC hits; for Ki: 25 nM CA200645, mean ± SEM, n=3, read-out: A1AR pKi (selected LOPAC hits) (converted)
T3 construct: expressed in transfected cells
T3 sequence (P30542 1-326): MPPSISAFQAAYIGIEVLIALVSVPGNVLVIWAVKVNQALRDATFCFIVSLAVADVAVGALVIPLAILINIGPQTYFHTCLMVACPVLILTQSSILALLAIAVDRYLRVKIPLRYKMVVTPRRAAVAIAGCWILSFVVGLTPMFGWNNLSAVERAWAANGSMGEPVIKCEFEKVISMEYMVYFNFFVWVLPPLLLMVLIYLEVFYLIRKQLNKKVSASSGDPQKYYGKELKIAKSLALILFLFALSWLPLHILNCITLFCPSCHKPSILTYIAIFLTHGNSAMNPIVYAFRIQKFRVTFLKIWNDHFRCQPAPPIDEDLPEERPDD
Procedure: as §1, §2, §3, §4

A3AR = conditions: ref Stoddart et al. ([2012]); cited from earlier work
human A3AR [3] = target: T1, human A3AR; experiment: HTS (PHERAstar FS) fluorescent ligand competition binding in live CHO cells, 5 nM AV039 tracer
Procedure: as §1, §2, §3, §4

A1AR = conditions: cited from earlier work
[4] = % of control wells (1% DMSO and 25 nM CA200645), compounds at 10 µM, whole live cells expressing the A3AR, mean ± SD, three experiments in duplicate
[5] = secondary screen of LOPAC hits, full inhibition curves, 25 nM CA200645, mean ± SEM, n=3, read-out: A3AR pKi (selected LOPAC hits) (converted)

T2 sequence (P07550 whole entry): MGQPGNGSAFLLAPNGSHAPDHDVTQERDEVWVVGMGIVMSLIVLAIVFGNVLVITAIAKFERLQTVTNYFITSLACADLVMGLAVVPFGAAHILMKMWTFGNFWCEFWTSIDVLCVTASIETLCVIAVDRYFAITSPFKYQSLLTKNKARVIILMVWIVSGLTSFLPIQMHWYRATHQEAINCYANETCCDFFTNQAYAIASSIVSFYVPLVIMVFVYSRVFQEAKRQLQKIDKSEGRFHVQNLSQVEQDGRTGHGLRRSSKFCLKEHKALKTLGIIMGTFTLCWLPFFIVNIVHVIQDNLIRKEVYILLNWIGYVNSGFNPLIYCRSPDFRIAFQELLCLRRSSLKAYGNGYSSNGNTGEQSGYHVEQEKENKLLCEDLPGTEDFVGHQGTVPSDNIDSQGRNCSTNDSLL

- % 25 nM CA200645 binding (human A3AR [1]; [4]): 26.5 ± 2.0%
- β2AR % Total binding at 10 μM (β2AR): 102.7 ± 5.1%
- Ki (human A3AR [2]; [5]): 741 nM
- Ki (human A1AR): 912 nM
Molecule: CC1=C(/C=C/C(C)=C/C=C/C(C)=C/C(=O)Nc2ccc(O)cc2)C(C)(C)CCC1 [Retinoic acid p-hydroxyanilide]

Molecule: Nc1nc2ccc(Cl)cc2c2nc(-c3ccco3)nn12 [CGS15943]
- Literature values (A3AR) (A3AR): 8.18
- % Total CA200645 binding (human A3AR [1]): 30.0 ± 3.0%
- β2AR % Total binding at 10 μM (β2AR): 115.4 ± 5.0%
- effect on binding of BODIPY-TMR-CGP at the β2AR (β2AR; secondary screen of LOPAC hits): no effect
- Ki (human A3AR [3]): 12.3 nM
- Ki (human A3AR [2]): 12.3 nM

Molecule: O=C(Cc1ccccc1)Nc1nc2ccc(Cl)cc2c2nc(-c3ccco3)nn12 [MRS1220]
- Literature values (A1AR) (A1AR; A1AR, ref Stoddart et al. ([2012])): 7.14

Molecule: CA200645
- Kd (A1AR; ref Stoddart et al., [2012], read-out: KD of fluorescent ligand at the A1AR): 11 nM

Molecule: O=c1c(O)c(-c2ccc(O)c(O)c2)oc2cc(O)cc(O)c12 [quercetin]
- displacement of CA200645 binding at the A3AR in full inhibition curves (human A3AR [2]): only displaced the binding of CA200645 at the highest concentration tested

Molecule: CN(C)S(=O)(=O)c1ccc2c(c1)/C(=C/c1cc3c([nH]1)CCCC3)C(=O)N2 [SU 6656]
- % 25 nM CA200645 binding (human A3AR [1]): 17.3 ± 1.8%
- β2AR % Total binding at 10 μM (β2AR): 128.4 ± 18.4%
- Ki (human A3AR [2]; [5]): 676 nM
- inhibition of CA200645 binding at the A1AR (human A1AR): only inhibited binding at the highest concentration tested

- % 25 nM CA200645 binding (human A3AR [1]; [4]): 24.6 ± 5.8%
- β2AR % Total binding at 10 μM (β2AR): 95.8 ± 5.5%
- Ki (human A3AR [2]; [5]): 372 nM
- Ki (human A1AR): 275 nM
Molecule: Oc1ccc(/C=C/c2ccc(/C=C/c3ccc(O)cc3)c(Br)c2)cc1 [K114]

Molecule: O=C1Cc2c([nH]c3ccc(Br)cc23)-c2ccccc2N1 [kenpaullone, reference compound]
- % 25 nM CA200645 binding (human A3AR [1]): 30.6 ± 6.6%
- displacement of CA200645 binding at the A3AR in full inhibition curves (human A3AR [2]): only displaced the binding of CA200645 at the highest concentration tested

Molecule: Nc1nc(NCCc2ccc(O)cc2)nc2nc(-c3ccco3)nn12 [ZM241385]
- Literature values (A3AR) (A3AR): 6.74
- Ki (human A3AR [3]; CHO cells expressing A3AR, 5 nM AV039, PHERAstar HTS assay, mean ± SEM, read-out: pKi A3AR AV039 (converted)): 479 nM
- Ki (human A3AR [2]; CHO cells expressing A3AR, 25 nM CA200645, PHERAstar HTS assay, mean ± SEM, read-out: pKi A3AR CA200645 (converted)): 234 nM

Molecule: CC(=O)c1c(O)c(C)c(O)c(Cc2c(O)c3c(c(C(=O)/C=C/c4ccccc4)c2O)OC(C)(C)C=C3)c1O [rottlerin, reference compound]
- % 25 nM CA200645 binding (human A3AR [1]): 22.8 ± 1.4%
- displacement of CA200645 binding at the A3AR in full inhibition curves (human A3AR [2]): only displaced the binding of CA200645 at the highest concentration tested

Molecule: Cn1c(=O)c(-c2c(Cl)cccc2Cl)cc2cnc(Nc3ccc(N4CCOCC4)cc3)nc21 [PD173952, reference compound]
- % 25 nM CA200645 binding (human A3AR [1]): 25.6 ± 5.3%
- displacement of CA200645 binding at the A3AR in full inhibition curves (human A3AR [2]): only displaced the binding of CA200645 at the highest concentration tested

- % 25 nM CA200645 binding (human A3AR [1]; [4]): 100.0 ± 4.2%
Molecule: O=C(O)/C=C/c1ccc(O)c(O)c1 [Caffeic Acid]
